Read-outs that look alike come from different tables or passages of the source. *1 amine or outer side, *2 acyl side, *3 side chain or, on linkers, in order; H or OH if unused. Where a SMILES comes first, the peptide text is derived from it. Side-chain parts run from the residue outwards. [ ]: non-standard residue; d: D form. The star is where a group is joined. γGlu = O=C(O)[C@H](CCC(=O)[*:2])N[*:1]; Palmitoyl = CCCCCCCCCCCCCCCC(=O)*; Aib = CC(C)(N)C(=O)O
Tests used:
Type in all cases: cell-based
GLP-1 receptor = target: T1, GLP-1 receptor (Homo sapiens, UniProt P43220); experiment: cAMP induction, firefly luciferase reporter assay in HEK293 cells co-transfected with GLP-1 receptor
T1 construct: expressed in transfected cells; host or cells: HEK293
Excerpt: (§1) This example describes an exemplary method of testing the biological activity of the peptides of the present disclosures, which method involves assaying cAMP synthesis.

glucagon receptor = target: T2, glucagon receptor (Homo sapiens, UniProt P47871); experiment: cAMP induction, firefly luciferase reporter assay in HEK293 cells co-transfected with glucagon receptor
T2 construct: expressed in transfected cells; host or cells: HEK293
Excerpt: as §1

GIP receptor = target: T3, GIP receptor (Homo sapiens, UniProt P48546); experiment: cAMP induction, firefly luciferase reporter assay in HEK293 cells co-transfected with GIP receptor
T3 sequence (P48546 22-466): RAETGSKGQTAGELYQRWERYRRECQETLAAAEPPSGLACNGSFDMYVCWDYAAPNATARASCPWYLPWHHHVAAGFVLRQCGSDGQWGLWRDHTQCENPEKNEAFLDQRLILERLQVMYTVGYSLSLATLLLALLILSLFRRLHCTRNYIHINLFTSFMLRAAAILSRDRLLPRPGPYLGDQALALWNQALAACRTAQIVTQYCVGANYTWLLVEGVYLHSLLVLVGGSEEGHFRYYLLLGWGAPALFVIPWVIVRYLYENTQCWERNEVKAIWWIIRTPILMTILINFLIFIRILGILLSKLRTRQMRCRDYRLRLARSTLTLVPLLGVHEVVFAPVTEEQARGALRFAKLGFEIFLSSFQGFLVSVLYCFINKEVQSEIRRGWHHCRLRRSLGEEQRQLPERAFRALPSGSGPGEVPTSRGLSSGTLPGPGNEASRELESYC

T2 sequence (P47871 26-477): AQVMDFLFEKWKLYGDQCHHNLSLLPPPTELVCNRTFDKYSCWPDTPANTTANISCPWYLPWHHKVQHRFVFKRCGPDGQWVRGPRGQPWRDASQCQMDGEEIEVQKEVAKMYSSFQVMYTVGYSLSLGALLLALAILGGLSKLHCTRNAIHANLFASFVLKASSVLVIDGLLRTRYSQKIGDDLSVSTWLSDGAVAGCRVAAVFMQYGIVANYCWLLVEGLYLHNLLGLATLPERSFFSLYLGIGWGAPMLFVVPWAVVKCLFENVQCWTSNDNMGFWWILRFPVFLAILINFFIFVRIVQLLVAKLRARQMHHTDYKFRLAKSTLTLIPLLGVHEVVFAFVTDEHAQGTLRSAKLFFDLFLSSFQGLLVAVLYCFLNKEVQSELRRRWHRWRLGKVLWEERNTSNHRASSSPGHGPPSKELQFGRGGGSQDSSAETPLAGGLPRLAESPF
T1 sequence (P43220 24-463): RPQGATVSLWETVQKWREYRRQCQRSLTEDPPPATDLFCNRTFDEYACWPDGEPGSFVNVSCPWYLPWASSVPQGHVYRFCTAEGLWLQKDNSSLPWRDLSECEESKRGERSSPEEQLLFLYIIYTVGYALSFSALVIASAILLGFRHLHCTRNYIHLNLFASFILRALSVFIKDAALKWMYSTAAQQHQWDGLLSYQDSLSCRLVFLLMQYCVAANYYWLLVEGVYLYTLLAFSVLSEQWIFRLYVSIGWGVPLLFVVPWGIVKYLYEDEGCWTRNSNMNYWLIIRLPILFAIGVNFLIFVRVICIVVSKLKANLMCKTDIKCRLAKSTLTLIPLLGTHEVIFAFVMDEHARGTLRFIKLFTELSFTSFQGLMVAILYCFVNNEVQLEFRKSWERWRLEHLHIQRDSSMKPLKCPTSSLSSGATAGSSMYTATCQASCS

Structure (SMILES)	EC50 (GLP-1 receptor; GLP-1 Receptor EC50, Table 10, Example 16)	EC50 (glucagon receptor; Glucagon Receptor EC50, Table 10, Example 16)	EC50 (GIP receptor; Table 10, Example 16, read-out: GIP-1 Receptor EC50)	EC50 (GLP-1 receptor; Table 12, Example 19, read-out: EC50 (cAMP, nmole) GLPR)	EC50 (glucagon receptor; Table 12, Example 19, read-out: EC50 (cAMP, nmole) GCGR)	EC50 (GIP receptor; Table 12, Example 19, read-out: EC50 (cAMP, nmole) GIPR)
CCCCCCCCCCCCCCCC(=O)N[C@@H](CCC(=O)NCCCC[C@H](NC(=O)[C@H](CC(=O)O)NC(=O)[C@H](CC(C)C)NC(=O)[C@H](Cc1ccc(O)cc1)NC(=O)[C@H](CCCCN)NC(=O)[C@H](CO)NC(=O)[C@H](Cc1ccc(O)cc1)NC(=O)[C@H](CC(=O)O)NC(=O)[C@H](CO)NC(=O)[C@@H](NC(=O)[C@H](Cc1ccccc1)NC(=O)[C@@H](NC(=O)CNC(=O)[C@H](CCC(N)=O)NC(=O)C(C)(C)NC(=O)[C@@H](N)Cc1c[nH]cn1)[C@@H](C)O)[C@@H](C)O)C(=O)N[C@@H](CCCNC(=N)N)C(=O)N[C@@H](C)C(=O)N[C@@H](C)C(=O)N[C@@H](CCC(N)=O)C(=O)N[C@@H](CC(=O)O)C(=O)N[C@@H](Cc1ccccc1)C(=O)N[C@H](C(=O)N[C@@H](CCC(N)=O)C(=O)N[C@@H](Cc1c[nH]c2ccccc12)C(=O)N[C@@H](CC(C)C)C(=O)N[C@@H](CC(C)C)C(=O)N[C@@H](CC(=O)O)C(=O)NCC(=O)NCC(=O)N1CCC[C@H]1C(=O)N[C@@H](CO)C(=O)N[C@@H](CO)C(=O)NCC(=O)N[C@@H](C)C(=O)N1CCC[C@H]1C(=O)N1CCC[C@H]1C(=O)N1CCC[C@H]1C(=O)N[C@@H](CO)C(N)=O)C(C)C)C(=O)O [SEQ ID NO: 153] (H-H[Aib]QGTFTSDYSKYLDK([γGlu-Palmitoyl])RAAQDFVQWLLDGGPSSGAPPPS-NH2; N-terminus assumed)	7 pM	12 pM	276 pM	–	–	–
CCCCCCCCCCCCCCCC(=O)N[C@@H](CCC(=O)NCCCC[C@H](NC(=O)CC[C@H](NC(=O)CCCCCCCCCCCCCCC)C(=O)O)C(=O)NCCCC[C@H](NC(=O)[C@H](CC(=O)O)NC(=O)[C@H](CO)NC(=O)[C@@H](NC(=O)[C@H](Cc1ccccc1)NC(=O)[C@@H](NC(=O)CNC(=O)[C@H](CCC(N)=O)NC(=O)C(C)(C)NC(=O)[C@@H](N)Cc1c[nH]cn1)[C@@H](C)O)[C@@H](C)O)C(=O)N[C@@H](CO)C(=O)N[C@@H](CCCCN)C(=O)N[C@@H](Cc1ccc(O)cc1)C(=O)N[C@@H](CC(C)C)C(=O)N[C@@H](CC(=O)O)C(=O)N[C@@H](CCC(=O)O)C(=O)N[C@@H](CCCNC(=N)N)C(=O)N[C@@H](C)C(=O)N[C@@H](C)C(=O)N[C@@H](CCC(N)=O)C(=O)N[C@@H](CC(=O)O)C(=O)N[C@@H](Cc1ccccc1)C(=O)N[C@H](C(=O)N[C@@H](CCC(N)=O)C(=O)N[C@@H](Cc1c[nH]c2ccccc12)C(=O)N[C@@H](CC(C)C)C(=O)N[C@@H](CC(C)C)C(=O)N[C@@H](CC(=O)O)C(=O)NCC(=O)NCC(=O)N1CCC[C@H]1C(=O)N[C@@H](CO)C(=O)N[C@@H](CO)C(=O)NCC(=O)N[C@@H](C)C(=O)N1CCC[C@H]1C(=O)N1CCC[C@H]1C(=O)N1CCC[C@H]1C(=O)N[C@@H](CO)C(N)=O)C(C)C)C(=O)O [SEQ ID NO: 160]	–	–	–	7 pM	24 pM	15 pM

Reference: patent US9587005B2 (priority 2010, dated 2017)
